Measured values: paper PMC4352033, “SD-208, a Novel Protein Kinase D Inhibitor, Blocks Prostate Cancer Cell Proliferation and Tumor Growth In Vivo by Inducing G2/M Cell Cycle Arrest” (PLoS ONE, 2015)

What was measured:
Assay type in all cases: biochemical
PKCα = molecular target: T1, PKCα (Homo sapiens, UniProt P17252)
T1 construct: gene PRKCA; recombinant PKCα

PKCδ = molecular target: T2, PKCδ (Homo sapiens, UniProt Q05655); test: in vitro radiometric PKC kinase assay
T2 construct: gene PRKCD; recombinant PKCδ
T2 sequence (Q05655 whole entry): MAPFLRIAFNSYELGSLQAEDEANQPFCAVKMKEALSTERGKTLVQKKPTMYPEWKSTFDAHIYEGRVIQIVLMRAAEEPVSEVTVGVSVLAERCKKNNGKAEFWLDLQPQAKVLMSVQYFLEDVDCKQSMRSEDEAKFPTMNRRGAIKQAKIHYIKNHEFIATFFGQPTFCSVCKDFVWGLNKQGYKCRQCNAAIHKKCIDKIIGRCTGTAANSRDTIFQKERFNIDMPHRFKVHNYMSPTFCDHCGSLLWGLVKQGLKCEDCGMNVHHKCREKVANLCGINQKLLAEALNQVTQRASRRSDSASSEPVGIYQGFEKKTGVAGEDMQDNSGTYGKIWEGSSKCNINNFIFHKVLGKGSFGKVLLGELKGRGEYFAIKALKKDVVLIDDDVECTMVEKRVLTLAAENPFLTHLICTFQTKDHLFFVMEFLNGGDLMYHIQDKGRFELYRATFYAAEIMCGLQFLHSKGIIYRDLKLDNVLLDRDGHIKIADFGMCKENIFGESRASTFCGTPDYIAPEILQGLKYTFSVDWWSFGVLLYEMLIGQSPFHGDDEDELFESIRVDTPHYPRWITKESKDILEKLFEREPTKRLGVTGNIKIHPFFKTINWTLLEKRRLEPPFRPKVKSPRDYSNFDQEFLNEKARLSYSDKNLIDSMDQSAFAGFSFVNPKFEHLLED

protein kinase D1 (PKD1) = molecular target: T3, protein kinase D1 (PKD1) (Homo sapiens, UniProt Q15139); test: in vitro radiometric kinase assay, 10-point curve; Lineweaver-Burk
T3 construct: gene PRKD1; GST-tagged recombinant human PKD1
T3 sequence (Q15139 1-912): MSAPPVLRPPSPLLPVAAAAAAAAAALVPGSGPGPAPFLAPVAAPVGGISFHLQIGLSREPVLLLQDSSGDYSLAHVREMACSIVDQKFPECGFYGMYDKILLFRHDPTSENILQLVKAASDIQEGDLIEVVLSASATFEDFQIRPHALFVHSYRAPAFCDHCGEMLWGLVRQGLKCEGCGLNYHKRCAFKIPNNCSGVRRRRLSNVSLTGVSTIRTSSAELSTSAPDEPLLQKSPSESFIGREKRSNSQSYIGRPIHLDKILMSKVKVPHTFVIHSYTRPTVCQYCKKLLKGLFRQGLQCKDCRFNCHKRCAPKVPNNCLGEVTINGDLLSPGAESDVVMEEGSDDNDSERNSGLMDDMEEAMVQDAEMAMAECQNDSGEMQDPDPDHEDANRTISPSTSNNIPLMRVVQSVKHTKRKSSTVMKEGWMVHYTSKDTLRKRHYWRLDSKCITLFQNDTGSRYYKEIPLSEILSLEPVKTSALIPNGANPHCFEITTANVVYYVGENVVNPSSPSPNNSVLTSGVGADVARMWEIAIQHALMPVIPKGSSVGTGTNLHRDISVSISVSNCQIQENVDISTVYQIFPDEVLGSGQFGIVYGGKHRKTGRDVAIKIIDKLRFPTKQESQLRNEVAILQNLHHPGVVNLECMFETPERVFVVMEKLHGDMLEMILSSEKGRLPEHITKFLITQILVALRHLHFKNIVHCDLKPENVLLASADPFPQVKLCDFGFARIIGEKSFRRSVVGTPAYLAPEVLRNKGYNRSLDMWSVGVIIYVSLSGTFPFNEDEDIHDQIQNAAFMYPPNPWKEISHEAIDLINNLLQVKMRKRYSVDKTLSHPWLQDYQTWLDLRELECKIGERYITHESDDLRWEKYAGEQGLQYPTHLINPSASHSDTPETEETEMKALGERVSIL

PKD3 = molecular target: T4, PKD3 (Homo sapiens, UniProt O94806); test: in vitro radiometric kinase assay, 10-point curve
T4 construct: gene PRKD3; recombinant human PKD3
T4 sequence (O94806 1-890): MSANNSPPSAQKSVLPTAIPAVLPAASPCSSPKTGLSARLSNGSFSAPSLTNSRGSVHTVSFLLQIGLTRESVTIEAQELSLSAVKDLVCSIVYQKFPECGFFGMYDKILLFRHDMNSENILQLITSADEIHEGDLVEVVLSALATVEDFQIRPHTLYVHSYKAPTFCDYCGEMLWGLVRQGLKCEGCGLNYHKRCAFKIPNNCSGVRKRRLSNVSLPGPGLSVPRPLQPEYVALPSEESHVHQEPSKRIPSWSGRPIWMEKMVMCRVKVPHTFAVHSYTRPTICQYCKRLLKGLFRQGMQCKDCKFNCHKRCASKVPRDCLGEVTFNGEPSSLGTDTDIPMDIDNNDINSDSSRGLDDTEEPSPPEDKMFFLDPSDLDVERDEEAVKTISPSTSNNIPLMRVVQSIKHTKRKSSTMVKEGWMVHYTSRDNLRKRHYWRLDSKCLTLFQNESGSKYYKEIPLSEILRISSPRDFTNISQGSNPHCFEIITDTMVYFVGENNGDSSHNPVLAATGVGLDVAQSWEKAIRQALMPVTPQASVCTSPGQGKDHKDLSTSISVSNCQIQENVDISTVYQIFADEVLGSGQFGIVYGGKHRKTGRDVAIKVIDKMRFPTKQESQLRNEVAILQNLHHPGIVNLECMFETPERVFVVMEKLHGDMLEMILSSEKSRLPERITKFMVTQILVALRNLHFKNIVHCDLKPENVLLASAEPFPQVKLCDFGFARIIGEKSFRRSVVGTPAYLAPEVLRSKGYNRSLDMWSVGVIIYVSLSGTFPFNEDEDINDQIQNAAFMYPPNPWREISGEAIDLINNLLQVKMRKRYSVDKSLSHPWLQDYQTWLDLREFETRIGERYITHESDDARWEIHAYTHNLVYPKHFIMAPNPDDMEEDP

PKD2 = molecular target: T5, PKD2 (Homo sapiens, UniProt Q9BZL6); test: in vitro radiometric kinase assay, 10-point curve
T5 construct: gene PRKD2; recombinant human PKD2
T5 sequence (Q9BZL6 1-878): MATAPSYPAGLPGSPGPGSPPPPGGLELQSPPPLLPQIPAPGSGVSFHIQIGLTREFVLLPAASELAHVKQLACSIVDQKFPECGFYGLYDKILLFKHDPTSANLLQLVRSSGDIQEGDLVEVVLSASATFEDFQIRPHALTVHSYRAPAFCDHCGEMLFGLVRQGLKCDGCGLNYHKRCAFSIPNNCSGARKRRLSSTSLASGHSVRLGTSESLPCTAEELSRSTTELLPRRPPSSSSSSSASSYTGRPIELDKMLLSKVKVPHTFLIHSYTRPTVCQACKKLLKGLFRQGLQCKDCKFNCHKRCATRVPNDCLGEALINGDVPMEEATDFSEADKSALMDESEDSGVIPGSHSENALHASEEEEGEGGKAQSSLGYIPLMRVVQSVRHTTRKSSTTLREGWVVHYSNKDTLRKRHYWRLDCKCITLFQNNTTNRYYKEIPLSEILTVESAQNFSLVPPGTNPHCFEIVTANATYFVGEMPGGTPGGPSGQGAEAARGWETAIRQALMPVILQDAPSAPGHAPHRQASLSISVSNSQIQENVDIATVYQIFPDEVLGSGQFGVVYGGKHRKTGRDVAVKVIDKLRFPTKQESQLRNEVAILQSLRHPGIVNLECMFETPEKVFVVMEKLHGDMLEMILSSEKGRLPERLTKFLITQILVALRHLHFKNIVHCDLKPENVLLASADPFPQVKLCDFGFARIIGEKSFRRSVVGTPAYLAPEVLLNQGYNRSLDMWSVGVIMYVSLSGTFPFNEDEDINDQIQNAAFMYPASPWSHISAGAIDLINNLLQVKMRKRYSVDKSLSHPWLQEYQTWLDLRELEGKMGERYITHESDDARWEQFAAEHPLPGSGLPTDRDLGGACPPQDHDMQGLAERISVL

Row | Structure (SMILES) | in vitro radiometric PKC kinase assay (PKCα) | in vitro radiometric PKC kinase assay (PKCδ) | IC50 (protein kinase D1 (PKD1)) [µM] | IC50 (PKD3) [µM] | IC50 (PKD2) [µM]
1 | CN(C)CCCn1cc(C2=C(c3c[nH]c4ccccc34)C(=O)NC2=O)c2ccccc21 [GF109203X] | GF109203X was tested as a positive control and it potently and concentration-dependently inhibited PKCα and PKCδ | GF109203X was tested as a positive control and it potently and concentration-dependently inhibited PKCα and PKCδ | – | – | –
2 | Fc1ccc(Cl)cc1-c1nc(Nc2ccncc2)c2nccnc2n1 [SD-208] | – | – | 0.107 | 0.105 | 0.0935
